Results as given in US20110263574A1, “PIRENZEPINE AS OTOPROTECTIVE AGENT” (PROTEOSYS AG, priority 2009, published 2011).
“Also recorded” adds a separate entry of the source.

What was measured:
[1] = test system: PARP-1; conditions: induced by transient ischemia or acoustic trauma; Tabuchi et al.; cited from earlier work
[2] = test system: Inner hair cells (IHC); assay: Otoprotection in cultivated cochlea, cis-platin induced loss of inner hair cells; assay type: cell-based; conditions: cultivated cochlea of post-natal mice; cis-platin 5 μM; test compound 0.1 to 100 μM; compared to controls
Procedure: (§1) In cultivated cochlea, a loss of sensory or hair cells was induced by administering cis-platin (5 μM).
(§2) Intact cochlea of post-natal mice were cultivated up to 7 days (Unsworth and Lelkes, Nat. Med. 4 (1998), 901-907) in simulated microgravity.
(§3) The otic protectivity of the test compounds PSY 310 and PSY 3101 in the presence of ototoxic agents was tested. Neomycin (an aminoglycoside antibiotic) and cis-platinum (a chemotherapeutic agent) were added in three different concentrations to the cultivate organ over a time period of 48 hours.
(§4) The test compounds were added in six different amounts of 0.1 to 100 μM respectively.

[3] = test system: Outer hair cells (OHC); assay: Otoprotection in cultivated cochlea, cis-platin induced loss of outer hair cells; assay type: cell-based; conditions: cultivated cochlea of post-natal mice; cis-platin 5 μM; test compound 0.1 to 100 μM; compared to controls
Procedure: as §1, §2, §3, §4

[4] = test system: germ cell tumor cell line NT2; assay: Survival rate of cis-platin treated cancer cell line NT2 with simultaneous test compound; assay type: cell-based; conditions: cis-platin 1.4 μM, 10 μM test compound simultaneously, control DMSO 0.1%
[5] = test system: germ cell tumor cell line 2101 Ep; assay: Survival rate of cis-platin treated cancer cell line 2101 Ep with simultaneous test compound; assay type: cell-based; conditions: 2101 Ep cells; cis-platin 1.4 μM; 10 μM test compound simultaneously; control DMSO 0.1%

## NC(=O)c1cccc(N)c1 [3-aminobenzamide]
[1]
  effect on cochleal dysfunctions: alleviates

## CN1CCN(CC(=O)N2c3ccccc3C(=O)Nc3cccnc32)CC1 [pirenzepine]
[2]
  preserved fraction of inner hair cells (hair cell protection): dosis dependent protection; also recorded: dose-dependent increase
[3]
  preserved fraction of outer hair cells (hair cell protection): dosis dependent protection; also recorded: dose-dependent increase
[4]
  effect on cytotoxic effect of cis-platinum (survival rate of cancer cells): does not reduce
[5]
  effect on cytotoxic effect of cis-platinum (survival rate of cancer cells): does not reduce
